Calls of active or inactive are those of the source. Rule as the data show it, for most assays here: actives have a measured Kd and inactives only a lower limit.
Molecular target: Calcium/calmodulin-dependent protein kinase type II subunit gamma (Homo sapiens, UniProt Q13555)
Also: in the data inactive means no Kd found up to 30 µM.

Calcium/calmodulin-dependent protein kinase type II subunit gamma, sequence (Q13555 whole entry): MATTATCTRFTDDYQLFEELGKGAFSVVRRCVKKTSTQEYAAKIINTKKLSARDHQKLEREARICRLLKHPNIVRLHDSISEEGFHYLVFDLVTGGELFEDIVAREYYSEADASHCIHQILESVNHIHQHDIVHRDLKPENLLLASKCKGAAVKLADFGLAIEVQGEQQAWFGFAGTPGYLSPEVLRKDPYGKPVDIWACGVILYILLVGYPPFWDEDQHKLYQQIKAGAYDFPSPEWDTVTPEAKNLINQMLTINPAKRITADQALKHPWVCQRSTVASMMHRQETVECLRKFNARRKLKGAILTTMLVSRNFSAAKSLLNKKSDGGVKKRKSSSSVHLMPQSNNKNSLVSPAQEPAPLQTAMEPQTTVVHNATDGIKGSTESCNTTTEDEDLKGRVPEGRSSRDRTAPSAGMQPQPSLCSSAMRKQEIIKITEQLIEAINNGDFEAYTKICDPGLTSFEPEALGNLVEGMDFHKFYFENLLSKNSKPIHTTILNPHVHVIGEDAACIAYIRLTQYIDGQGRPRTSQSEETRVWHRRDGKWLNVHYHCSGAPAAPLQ

SMILES | Kd
CN1CCC(CNc2ccc3ncc(-c4cccc(OC(F)(F)F)c4)n3n2)CC1 [SGI-1776] | > 30 µM (inactive)
CC(=O)Nc1cccc(-n2c(=O)n(C3CC3)c(=O)c3c(Nc4ccc(I)cc4F)n(C)c(=O)c(C)c32)c1 [TRAMETINIB] | > 30 µM (inactive)
CCn1c(=O)c(-c2cc[nH]n2)cc2c(C)nc(N)nc21 [VOXTALISIB] | > 30 µM (inactive)

Molecular target: T1, Serine/threonine-protein kinase Chk1 (Homo sapiens, UniProt O14757)
T1 sequence (O14757 whole entry): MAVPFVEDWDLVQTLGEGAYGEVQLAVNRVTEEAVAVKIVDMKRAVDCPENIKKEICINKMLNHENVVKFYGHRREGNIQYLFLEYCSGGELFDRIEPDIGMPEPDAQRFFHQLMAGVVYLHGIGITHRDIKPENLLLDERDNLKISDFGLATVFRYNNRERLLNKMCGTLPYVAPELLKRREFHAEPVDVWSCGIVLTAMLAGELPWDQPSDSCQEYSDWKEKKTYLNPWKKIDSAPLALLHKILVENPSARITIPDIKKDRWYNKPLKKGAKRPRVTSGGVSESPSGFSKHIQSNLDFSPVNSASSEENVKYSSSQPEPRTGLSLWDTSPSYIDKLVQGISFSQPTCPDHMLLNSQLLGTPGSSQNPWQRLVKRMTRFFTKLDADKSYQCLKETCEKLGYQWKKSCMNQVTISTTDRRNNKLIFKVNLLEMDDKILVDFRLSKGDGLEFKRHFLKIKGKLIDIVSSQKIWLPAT

SMILES | Kd
CN1CCC(CNc2ccc3ncc(-c4cccc(OC(F)(F)F)c4)n3n2)CC1 [SGI-1776] | > 30 µM (inactive)
CC(=O)Nc1cccc(-n2c(=O)n(C3CC3)c(=O)c3c(Nc4ccc(I)cc4F)n(C)c(=O)c(C)c32)c1 [TRAMETINIB] | > 30 µM (inactive)
CCn1c(=O)c(-c2cc[nH]n2)cc2c(C)nc(N)nc21 [VOXTALISIB] | > 30 µM (inactive)

Molecular target: Dual specificity protein kinase CLK1 (Homo sapiens, UniProt P49759)
Sequence (P49759 whole entry): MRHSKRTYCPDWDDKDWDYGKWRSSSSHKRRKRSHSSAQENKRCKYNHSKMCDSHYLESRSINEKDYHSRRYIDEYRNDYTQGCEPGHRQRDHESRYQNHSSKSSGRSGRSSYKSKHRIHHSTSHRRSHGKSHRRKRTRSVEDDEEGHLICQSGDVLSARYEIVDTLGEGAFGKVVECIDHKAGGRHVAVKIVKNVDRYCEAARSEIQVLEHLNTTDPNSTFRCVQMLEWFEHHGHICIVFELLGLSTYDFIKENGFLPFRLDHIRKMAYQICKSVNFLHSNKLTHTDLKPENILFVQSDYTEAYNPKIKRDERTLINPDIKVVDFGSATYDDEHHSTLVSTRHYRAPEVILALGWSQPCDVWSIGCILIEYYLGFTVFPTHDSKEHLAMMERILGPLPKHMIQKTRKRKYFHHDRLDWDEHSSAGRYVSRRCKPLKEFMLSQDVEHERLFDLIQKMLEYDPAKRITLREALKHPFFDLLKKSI

SMILES | Kd
CN1CCC(CNc2ccc3ncc(-c4cccc(OC(F)(F)F)c4)n3n2)CC1 [SGI-1776] | > 30 µM (inactive)
CC(=O)Nc1cccc(-n2c(=O)n(C3CC3)c(=O)c3c(Nc4ccc(I)cc4F)n(C)c(=O)c(C)c32)c1 [TRAMETINIB] | > 30 µM (inactive)
CCn1c(=O)c(-c2cc[nH]n2)cc2c(C)nc(N)nc21 [VOXTALISIB] | > 30 µM (inactive)

Molecular target: Casein kinase I isoform delta (Homo sapiens, UniProt P48730)
Sequence (P48730 whole entry, canonical isoform): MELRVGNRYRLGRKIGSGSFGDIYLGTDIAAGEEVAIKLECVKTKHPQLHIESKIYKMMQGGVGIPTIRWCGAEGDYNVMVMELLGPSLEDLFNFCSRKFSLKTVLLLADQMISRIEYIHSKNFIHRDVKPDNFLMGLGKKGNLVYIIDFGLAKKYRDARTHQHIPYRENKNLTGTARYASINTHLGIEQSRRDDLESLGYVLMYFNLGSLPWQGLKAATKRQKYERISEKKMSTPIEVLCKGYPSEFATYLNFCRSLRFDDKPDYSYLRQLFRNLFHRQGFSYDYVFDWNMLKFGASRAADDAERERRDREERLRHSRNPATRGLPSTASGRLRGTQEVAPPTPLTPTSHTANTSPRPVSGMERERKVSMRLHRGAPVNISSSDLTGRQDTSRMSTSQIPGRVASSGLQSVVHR

SMILES | Kd
CN1CCC(CNc2ccc3ncc(-c4cccc(OC(F)(F)F)c4)n3n2)CC1 [SGI-1776] | > 30 µM (inactive)
CC(=O)Nc1cccc(-n2c(=O)n(C3CC3)c(=O)c3c(Nc4ccc(I)cc4F)n(C)c(=O)c(C)c32)c1 [TRAMETINIB] | > 30 µM (inactive)
CCn1c(=O)c(-c2cc[nH]n2)cc2c(C)nc(N)nc21 [VOXTALISIB] | > 30 µM (inactive)

Molecular target: Serine/threonine-protein kinase Nek7 (Homo sapiens, UniProt Q8TDX7)
Sequence (Q8TDX7 whole entry): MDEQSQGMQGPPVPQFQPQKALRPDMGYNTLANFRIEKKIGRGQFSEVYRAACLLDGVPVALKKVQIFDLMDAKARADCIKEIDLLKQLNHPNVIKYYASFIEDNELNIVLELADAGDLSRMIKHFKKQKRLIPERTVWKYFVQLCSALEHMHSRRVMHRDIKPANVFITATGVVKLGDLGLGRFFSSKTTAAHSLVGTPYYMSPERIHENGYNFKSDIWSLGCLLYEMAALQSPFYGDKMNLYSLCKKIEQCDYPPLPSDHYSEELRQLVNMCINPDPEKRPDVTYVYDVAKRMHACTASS

SMILES | Kd
CN1CCC(CNc2ccc3ncc(-c4cccc(OC(F)(F)F)c4)n3n2)CC1 [SGI-1776] | > 30 µM (inactive)

Molecular target: T2, Pyridoxal kinase (Homo sapiens, UniProt O00764)
T2 sequence (O00764 whole entry): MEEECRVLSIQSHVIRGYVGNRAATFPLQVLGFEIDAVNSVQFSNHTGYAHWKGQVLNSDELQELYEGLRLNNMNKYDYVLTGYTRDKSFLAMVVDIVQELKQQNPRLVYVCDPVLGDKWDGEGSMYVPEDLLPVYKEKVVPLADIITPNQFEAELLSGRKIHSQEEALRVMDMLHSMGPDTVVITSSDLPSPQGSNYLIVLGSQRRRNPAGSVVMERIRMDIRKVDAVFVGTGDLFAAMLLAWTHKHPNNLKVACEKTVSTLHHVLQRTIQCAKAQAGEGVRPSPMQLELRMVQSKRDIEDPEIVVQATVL

SMILES | Kd
CCn1c(-c2nonc2N)nc2c(C#CC(C)(C)O)ncc(OC[C@H]3CCCNC3)c21 [GSK-690693] | > 30 µM (inactive)
Cc1cn(-c2cc(NC(=O)c3ccc(C)c(Nc4nccc(-c5cccnc5)n4)c3)cc(C(F)(F)F)c2)cn1 [NILOTINIB] | > 30 µM (inactive)
CN1CCC(CNc2ccc3ncc(-c4cccc(OC(F)(F)F)c4)n3n2)CC1 [SGI-1776] | > 30 µM (inactive)
CC(=O)Nc1cccc(-n2c(=O)n(C3CC3)c(=O)c3c(Nc4ccc(I)cc4F)n(C)c(=O)c(C)c32)c1 [TRAMETINIB] | > 30 µM (inactive)
CCn1c(=O)c(-c2cc[nH]n2)cc2c(C)nc(N)nc21 [VOXTALISIB] | > 30 µM (inactive)

Molecular target: Serine/threonine-protein kinase N3 (Homo sapiens, UniProt Q6P5Z2)
Sequence (Q6P5Z2 whole entry): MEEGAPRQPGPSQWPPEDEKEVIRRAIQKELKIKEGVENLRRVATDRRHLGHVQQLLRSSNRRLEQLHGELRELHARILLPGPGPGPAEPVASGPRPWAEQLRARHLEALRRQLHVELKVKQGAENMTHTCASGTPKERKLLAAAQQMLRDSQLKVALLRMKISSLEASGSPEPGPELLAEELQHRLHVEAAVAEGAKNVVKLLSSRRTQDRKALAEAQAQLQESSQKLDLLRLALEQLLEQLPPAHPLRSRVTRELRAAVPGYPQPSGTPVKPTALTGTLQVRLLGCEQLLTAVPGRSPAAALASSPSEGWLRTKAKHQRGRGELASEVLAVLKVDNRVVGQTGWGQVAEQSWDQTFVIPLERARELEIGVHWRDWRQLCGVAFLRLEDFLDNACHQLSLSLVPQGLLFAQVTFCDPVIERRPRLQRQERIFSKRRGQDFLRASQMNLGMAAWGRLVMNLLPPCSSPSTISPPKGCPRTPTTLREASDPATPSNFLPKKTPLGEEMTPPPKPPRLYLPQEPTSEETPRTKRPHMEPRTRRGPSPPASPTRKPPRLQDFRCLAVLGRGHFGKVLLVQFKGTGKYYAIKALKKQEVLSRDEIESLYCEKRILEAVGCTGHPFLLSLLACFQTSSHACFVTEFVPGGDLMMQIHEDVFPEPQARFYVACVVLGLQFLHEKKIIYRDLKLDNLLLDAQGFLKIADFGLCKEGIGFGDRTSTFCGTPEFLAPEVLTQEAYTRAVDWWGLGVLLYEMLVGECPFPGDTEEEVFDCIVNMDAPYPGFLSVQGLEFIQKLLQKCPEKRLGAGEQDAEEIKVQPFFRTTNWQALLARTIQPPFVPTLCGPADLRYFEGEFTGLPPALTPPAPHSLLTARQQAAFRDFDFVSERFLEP

SMILES | Kd
Cc1cn(-c2cc(NC(=O)c3ccc(C)c(Nc4nccc(-c5cccnc5)n4)c3)cc(C(F)(F)F)c2)cn1 [NILOTINIB] | > 30 µM (inactive)
CN1CCC(CNc2ccc3ncc(-c4cccc(OC(F)(F)F)c4)n3n2)CC1 [SGI-1776] | > 30 µM (inactive)
CC(=O)Nc1cccc(-n2c(=O)n(C3CC3)c(=O)c3c(Nc4ccc(I)cc4F)n(C)c(=O)c(C)c32)c1 [TRAMETINIB] | > 30 µM (inactive)

Molecular target: cAMP-dependent protein kinase catalytic subunit alpha (Homo sapiens, UniProt P17612)

SMILES | Kd
CN1CCC(CNc2ccc3ncc(-c4cccc(OC(F)(F)F)c4)n3n2)CC1 [SGI-1776] | > 30 µM (inactive)
CC(=O)Nc1cccc(-n2c(=O)n(C3CC3)c(=O)c3c(Nc4ccc(I)cc4F)n(C)c(=O)c(C)c32)c1 [TRAMETINIB] | > 30 µM (inactive)
CCn1c(=O)c(-c2cc[nH]n2)cc2c(C)nc(N)nc21 [VOXTALISIB] | > 30 µM (inactive)

Molecular target: T3, Protein kinase C zeta type (Homo sapiens, UniProt Q05513)
T3 sequence (Q05513 whole entry): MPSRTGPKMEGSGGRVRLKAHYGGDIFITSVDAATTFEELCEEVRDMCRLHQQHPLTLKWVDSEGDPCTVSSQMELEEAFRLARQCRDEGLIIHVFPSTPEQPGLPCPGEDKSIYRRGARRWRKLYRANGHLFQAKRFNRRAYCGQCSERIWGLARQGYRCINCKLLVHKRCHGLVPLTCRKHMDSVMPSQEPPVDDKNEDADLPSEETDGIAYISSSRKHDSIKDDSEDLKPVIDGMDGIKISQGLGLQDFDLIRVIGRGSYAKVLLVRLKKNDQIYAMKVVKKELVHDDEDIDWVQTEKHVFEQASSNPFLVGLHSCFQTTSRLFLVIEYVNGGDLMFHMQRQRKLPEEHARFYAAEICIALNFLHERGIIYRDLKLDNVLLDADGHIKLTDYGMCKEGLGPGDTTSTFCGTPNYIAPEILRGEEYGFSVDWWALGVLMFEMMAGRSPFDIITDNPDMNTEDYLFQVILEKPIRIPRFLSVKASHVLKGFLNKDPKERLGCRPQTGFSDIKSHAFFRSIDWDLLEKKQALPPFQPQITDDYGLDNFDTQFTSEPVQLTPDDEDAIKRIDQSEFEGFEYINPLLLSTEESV

SMILES | Kd
CCn1c(-c2nonc2N)nc2c(C#CC(C)(C)O)ncc(OC[C@H]3CCCNC3)c21 [GSK-690693] | > 30 µM (inactive)
Cc1cn(-c2cc(NC(=O)c3ccc(C)c(Nc4nccc(-c5cccnc5)n4)c3)cc(C(F)(F)F)c2)cn1 [NILOTINIB] | > 30 µM (inactive)
CN1CCC(CNc2ccc3ncc(-c4cccc(OC(F)(F)F)c4)n3n2)CC1 [SGI-1776] | > 30 µM (inactive)
CC(=O)Nc1cccc(-n2c(=O)n(C3CC3)c(=O)c3c(Nc4ccc(I)cc4F)n(C)c(=O)c(C)c32)c1 [TRAMETINIB] | > 30 µM (inactive)
CCn1c(=O)c(-c2cc[nH]n2)cc2c(C)nc(N)nc21 [VOXTALISIB] | > 30 µM (inactive)

Molecular target: Ribosomal protein S6 kinase alpha-3 (Homo sapiens, UniProt P51812)
Sequence (P51812 whole entry): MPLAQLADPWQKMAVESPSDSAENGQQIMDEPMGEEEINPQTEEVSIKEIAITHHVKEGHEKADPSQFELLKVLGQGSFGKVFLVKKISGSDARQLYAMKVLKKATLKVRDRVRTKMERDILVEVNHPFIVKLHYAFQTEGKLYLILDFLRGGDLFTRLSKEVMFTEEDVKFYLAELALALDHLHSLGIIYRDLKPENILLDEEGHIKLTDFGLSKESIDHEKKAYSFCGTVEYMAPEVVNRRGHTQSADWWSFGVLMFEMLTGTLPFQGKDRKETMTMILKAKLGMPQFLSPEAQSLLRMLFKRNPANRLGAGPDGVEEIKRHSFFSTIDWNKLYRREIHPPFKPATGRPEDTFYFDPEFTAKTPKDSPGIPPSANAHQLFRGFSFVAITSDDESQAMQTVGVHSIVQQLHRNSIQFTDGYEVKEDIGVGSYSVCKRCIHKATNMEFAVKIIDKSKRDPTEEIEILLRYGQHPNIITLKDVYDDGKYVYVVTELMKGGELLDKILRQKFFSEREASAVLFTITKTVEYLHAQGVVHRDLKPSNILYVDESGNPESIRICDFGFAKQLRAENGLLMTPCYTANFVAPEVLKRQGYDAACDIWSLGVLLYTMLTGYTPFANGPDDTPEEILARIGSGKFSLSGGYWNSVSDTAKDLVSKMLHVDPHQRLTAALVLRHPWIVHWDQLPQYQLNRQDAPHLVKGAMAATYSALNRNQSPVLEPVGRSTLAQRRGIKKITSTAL

SMILES | Kd
CN1CCC(CNc2ccc3ncc(-c4cccc(OC(F)(F)F)c4)n3n2)CC1 [SGI-1776] | > 30 µM (inactive)
CC(=O)Nc1cccc(-n2c(=O)n(C3CC3)c(=O)c3c(Nc4ccc(I)cc4F)n(C)c(=O)c(C)c32)c1 [TRAMETINIB] | > 30 µM (inactive)
CCn1c(=O)c(-c2cc[nH]n2)cc2c(C)nc(N)nc21 [VOXTALISIB] | > 30 µM (inactive)

Molecular target: Ribosomal protein S6 kinase alpha-5 (Homo sapiens, UniProt O75582)
Sequence (O75582 whole entry): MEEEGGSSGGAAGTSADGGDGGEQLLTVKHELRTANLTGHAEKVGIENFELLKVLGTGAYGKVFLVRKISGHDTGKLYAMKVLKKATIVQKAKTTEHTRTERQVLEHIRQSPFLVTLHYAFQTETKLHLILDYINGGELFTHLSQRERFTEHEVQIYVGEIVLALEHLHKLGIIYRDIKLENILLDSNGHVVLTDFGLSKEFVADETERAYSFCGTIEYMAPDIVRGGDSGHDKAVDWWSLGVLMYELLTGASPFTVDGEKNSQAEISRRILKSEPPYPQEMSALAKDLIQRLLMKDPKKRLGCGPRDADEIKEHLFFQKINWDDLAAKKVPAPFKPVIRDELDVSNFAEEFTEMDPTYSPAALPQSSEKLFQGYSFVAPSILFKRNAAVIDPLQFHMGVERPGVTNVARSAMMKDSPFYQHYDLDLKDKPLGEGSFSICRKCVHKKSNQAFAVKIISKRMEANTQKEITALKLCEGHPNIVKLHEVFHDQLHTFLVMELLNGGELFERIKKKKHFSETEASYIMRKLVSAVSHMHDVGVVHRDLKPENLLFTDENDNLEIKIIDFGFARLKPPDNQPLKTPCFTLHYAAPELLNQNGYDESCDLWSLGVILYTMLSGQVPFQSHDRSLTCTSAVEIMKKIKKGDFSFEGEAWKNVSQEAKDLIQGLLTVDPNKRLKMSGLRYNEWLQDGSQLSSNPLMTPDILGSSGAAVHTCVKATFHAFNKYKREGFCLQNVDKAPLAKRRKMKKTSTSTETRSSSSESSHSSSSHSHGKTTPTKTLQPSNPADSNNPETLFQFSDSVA

SMILES | Kd
CN1CCC(CNc2ccc3ncc(-c4cccc(OC(F)(F)F)c4)n3n2)CC1 [SGI-1776] | > 30 µM (inactive)
CC(=O)Nc1cccc(-n2c(=O)n(C3CC3)c(=O)c3c(Nc4ccc(I)cc4F)n(C)c(=O)c(C)c32)c1 [TRAMETINIB] | > 30 µM (inactive)
CCn1c(=O)c(-c2cc[nH]n2)cc2c(C)nc(N)nc21 [VOXTALISIB] | > 30 µM (inactive)

From ChEMBL document CHEMBL3991601, “The target landscape of clinical kinase drugs” (Science, 2017)
